These results are taken from US8420606B2, “Method of utilizing physiological activity of rare saccharide and composition containing rare saccharide” (priority 2002, dated 2013).

In assay [1] the test system is KG-1. The assay is described as follows: blood-system cancer cell strain proliferation, Coulter Counter, KG1. The assay is classed as cell-based. Conditions: 0.05-50 mM, 7 days, including the control. The protocol: (§1) (2) Method: Total 6 kinds of cell strains, i.e., Myeloid (HL-60, THP-1, KG-1), T-cell (MT-2), and B-Cell (Daudi, KS-1), and 3 kinds of rare saccharides (i.e., D-psicose, D-altrose, and D-allose), were employed. The culture medium and the cells were prepared to be 1 mL in total and 1×10^5 in number, respectively. Then, the cell number at each of fourth day and seventh day was counted by using a Coulter Counter. Each rare saccharide was added at concentrations of 0.05, 0.5, 5 and 50 mM, while D-glucose was used as a control.
(§2) Culture Medium: FBS 10% added RPMI1460
(§3) Cultivation Conditions: 37° C., 5% CO2
(§4) Cultivation Vessel: FALCON, MULTIWELL, 12 wells
(§5) Number of Cultivation Days: 7 days
(§6) Saccharides Concentration: 0.05, 0.5, 5, 50 mM

The test system of assay [2] is island skin flap of Wistar rat. The assay is described as follows: island skin-flap ischemia-reperfusion, survival area. The assay is classed as in vivo. The source says:
(1) Purpose: In the past basic researches, the inventors have tried to find out the mechanisms of skin-flap necrosis after ischemia and reperfusion of island skin flaps and necrosis of distal portions of random pattern skin flaps. As a result, the inventors have clarified that active oxygen is related to the necrosis of island skin flaps after ischemia and reperfusion and the necrosis of distal portions of random pattern skin flaps. […] In this Example 7, a first purpose is to obtain basic data regarding active-oxygen production inhibitory effects of rare saccharides, and a second purpose is to ensure clinical applications with the view of effectively preventing the necrosis of island skin flaps and random pattern skin flaps. A third purpose is to realize an application as a preservative liquid for long-period preservation of free skin flaps and amputated limbs. (2) Experiment method: 1) A Wistar rat (♂, 7 to 8 weeks, and 300 g or less) was put under anesthesia through abdominal administration of pentobarbital (Nembutal). 2) The abdomen was wholly shaved by a hair clipper. 3) An island skin flap of 3×5 cm was formed in the left abdomen with the left femoral artery and vein serving as blood vessel pedicels. 4) The elevated island skin flap was stitched to the original position by using a 4-0 nylon string. 5) Drugs (0.6 mL per drug) were each administrated in one shot through the right femoral artery and vein by instantaneous injection. The administered drugs were D-allose, glucose (0.2 mg/g), and physiological saline in various concentrations.
6) After waiting for 15 minutes from the administration of each drug, the blood vessel pedicels of both the left femoral artery and vein were clamped. Two vascular clips (60 g for the vein) were used for the clamping.
7) Complete shutoff of blood circulation was confirmed by using a laser Doppler rheometer.
8) After 8 hours, the rats were unclamped. Resumption of blood circulation was also confirmed by using a laser Doppler rheometer.
9) After 1 week, the life or death of the skin flap was determined.
10) An image of the skin flap was taken by a digital camera and input to a computer to calculate a survival area (%) by using area calculation software.
(3) Experiment groups: The following 6 groups were prepared with n=15 in each group.
1) D-allose: 150 mg (0.5 mg/g)
2) D-allose: 60 mg (0.2 mg/g)
3) D-allose: 30 mg (0.1 mg/g)
4) D-allose: 15 mg (0.05 mg/g)
5) D-glucose: 60 mg (0.2 mg/g)
6) physiological saline (control)
(4) Results (FIGS. 17 to 20): FIG. 18 showing all data of the survival areas (%), and FIG. 19 showing results of variance analysis (one-dimensional arrangement). […] In the multiple comparison assay, a significant difference was determined on condition of p<0.05.

The test system of assay [3] is livers of rats. Put plainly: rat liver ischemia-reperfusion, survival. The assay is classed as in vivo. The following applies: liver ischemia 90 minutes then reperfusion; D-allose 0.2 g/kg perfused before the ischemia; usually only 30%. On the procedure: When a surgical operation for intestinal organs, such as the liver, is performed, a blood flow is always temporarily stopped. This brings the intestinal organs into the ischemia state. When blood is started to flow again after the surgery, active oxygen is produced in large amount from leukocyte at that time, which is considered as one of major causes bringing about the organic injury. The inventors conducted an experiment through the steps of bringing the livers of rats into the ischemia state for a relatively long time, i.e., 90 minutes, and then reperfusing blood to examine the survival rate of the rats after 3 months depending on application or non-application of the rare saccharide. While the survival rate is usually only 30%, it increased to about 70% by perfusing D-allose at 0.2 g/kg before the ischemia. […] This effect is considered to be one factor making D-allose effective in organ protection.

In assay [4] the test system is HL-60. The assay is described as follows: blood-system cancer cell strain proliferation, Coulter Counter, HL60. The assay is classed as cell-based. The following applies: for HL60 cell number relative to glucose: seventh day, glucose = 100%; for HL60 proliferation inhibitory effect: 0.05-50 mM, 7 days, D-glucose control. The protocol: as §1, §2, §3, §4, §5, §6
Assay [5] relates to hippocampus neurons. Put plainly: temporary brain ischemia, survival of hippocampus neurons. The assay is classed as in vivo, gerbil. The following applies: for necrosis of hippocampus neurons caused by ischemia: 200 mg/kg before ischemia, 5 minutes ischemia, after 1 week. The protocol:
(2) Method: The bilateral common carotid artery of a gerbil was shut off for 5 minutes. After 1 week, the gerbil was sacrificed and a sample was prepared in accordance with the ordinary method, followed by hematoxyline eosin dyeing. The survival rate was measured by counting the number of hippocampus neurons while looking at them under a microscope. Experiments were performed on a normal control group, a group subjected to only ischemia, and a group administrated with 200 mg/kg of D-allose or D-psicose before ischemia. It is known that glutamates released in large amount from the neurons with ischemia are toxic to the neurons. Such a point was examined by fixing the gerbil to a brain position fixing device, perfusing a solution, in which oxidase glutamate is dissolved, to the hippocampus through a probe for micro-dialysis, and measuring the glutamate concentration outside the hippocampus neurons. Also, the inventors have clarified the relationship between the metabolism of glucose and the action mechanism of D-allose with ischemia by pre-administrating D-allose and 2-deoxiglucose.

The nature of assay [6]: intravenous grape sugar load test (IVGTT). The assay is classed as in vivo, rat. The following applies: 0.5 g/kg intravenous, rats fasted 16 hours. The protocol: (2) Method: 1) Intravenous grape sugar load test (IVGTT) . . . IVGTT was conducted on 8-week old male SD rats by inserting a catheter through the jugular vein. A rare saccharide was administrated to 3 rats, and glucose was administrated to other 3 rats.
Perform intravenous injection (IV) at 0.5 g/kg (i.e., 0.5 g/1000 g=500 mg/1000 g=0.5 mg/g).
Prepare rare-saccharide and glucose solutions in concentration of 0.5 g/mL (i.e., 0.5 g/1000 ul=500 mg/1000 ul=0.5 mg/ul). Prepare 2 mL of solution for each concentration.
Intravenously inject 200 ul of the solution for a 200 g rat.
Intravenously inject 250 ul of the solution for a 250 g rat.
Inject 300 ul of physiological saline after the intravenous injection.
Collect 150 ul of blood sample.
Abstain each rat from food for 16 hours as pretreatment. Allow to drink water.
Collect blood at 9 points in time, i.e., 0, 5, 10, 15, 20, 25, 30, 45 and 60 minutes.

Structures are written as SMILES. Entries after “also recorded” stand apart in the source; their conditions may differ.

On to `O=C[C@H](O)[C@H](O)[C@H](O)[C@H](O)CO` [D-allose], for which the “KG1 proliferation inhibitory effect” value in assay [1] was “having the inhibitory effect”. Further, in assay [2] (D-allose 15 mg (0.05 mg/g)), the “skin flap survival area versus physiological saline group and glucose group” value is recorded as “a statistical significant difference was not confirmed”. In addition, the “skin flap survival area versus physiological saline group” value in assay [2] (D-allose 30 mg (0.1 mg/g) or more (groups 150, 60, 30 mg), 8 hours clamping, 1 week, p<0.05) is “a statistical significant difference was confirmed”. The “skin flap survival area versus glucose group” value in assay [2] (D-allose 150 mg (0.5 mg/g) and 60 mg (0.2 mg/g)) is “a statistical significant difference was confirmed”. In addition, in assay [2] (per rat, 30 mg = 0.1 mg/g), the “dose required to develop the effect of extending the skin flap survival area” value is recorded as at least 30 mg. Moreover, the “survival rate of the rats after 3 months” value in assay [3] is “about 70%”. Further, the “HL60 cell number relative to glucose” value in assay [4] (0.05 mM) turned out to be 62.6%; in assay [4] (0.5 mM), 67.7%; in assay [4] (5 mM), 41.5%; in assay [4] (50 mM), 30.7%. Besides, the “HL60 proliferation inhibitory effect” value in assay [4] was “having the inhibitory effect”; in assay [4] (listed as allose) it was “showed an inhibitory effect”. Besides, the “necrosis of hippocampus neurons caused by ischemia” value in assay [5] was “significantly inhibited necrosis”. Besides, the “hippocampus neurons alive after ischemia” value in assay [5] (ischemia for 5 minutes, rat brains as printed, solution containing D-allose perfused before the ischemia, 80% died without) is recorded as 70%.

For `O=C[C@H](O)[C@@H](O)[C@H](O)[C@H](O)CO` [D-glucose, reference compound], the “skin flap survival area versus physiological saline group” value in assay [2] (D-glucose 60 mg (0.2 mg/g)) is listed as “did not show a statistical significant difference”. In assay [6], the “blood sugar value in IVGTT” value is “increased” and the “insulin concentration in the blood during IVGTT” value is “a rise of the insulin concentration was found”.

Turning to `O=C(CO)[C@H](O)[C@H](O)[C@H](O)CO` [D-psicose], in assay [6], the “blood sugar value in IVGTT” value is given as “no rise of the blood sugar value was found”. Further, the “insulin concentration in the blood during IVGTT” value in assay [6] is on record as “influences upon the insulin secretion were not found”. Moreover, the “HL60 cell number relative to glucose” value in assay [4] (0.05 mM) is listed as 84.7%; in assay [4] (0.5 mM), 80.7%; in assay [4] (5 mM) it was 84.2%; in assay [4] (50 mM), 93.6%. Further, the “HL60 proliferation inhibitory effect” value in assay [4] is “showed an inhibitory effect”. Also, in assay [5], the “necrosis of hippocampus neurons caused by ischemia” value was “not found; also recorded: not confirmed”.
